How the values were obtained:
Format in all cases: in vivo
[1] = test system: giant foxtail (Setaria faberi); assay: Test A pre-/postemergence plant response
How it was run: (§1)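 Seeds in loam soil/sand blend treated preemergence by directed soil spray, with simultaneous postemergence spray on 2–10 cm plants at one- to two-leaf stage; compounds in non-phytotoxic solvent with surfactant. Injury visually rated versus untreated controls after about 10 days in greenhouse, 0 (no effect) to 100 (complete control).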

[2] = test system: velvetleaf (Abutilon theophrasti); assay: Test A pre-/postemergence plant response
How it was run: as §1

[3] = test system: wheat (Triticum aestivum); assay: Test A pre-/postemergence plant response
How it was run: as §1

[4] = test system: Italian ryegrass (Lolium multiflorum); assay: Test C pre-/postemergence plant response; details: Preemergence
Excerpt: (§2) Seeds of plant species selected from annual bluegrass (Poa annua), blackgrass (Alopecurus myosuroides), canola (Brassica rapa), downy bromegrass (Bromus tectorum), green foxtail (Setaria viridis), Italian ryegrass (Lolium multiflorum), canarygrass (Phalaris minor), pigweed (Amaranthus retroflexus), spring barley (Hordeum vulgare), spring wheat (Triticum aestivum), wild mustard (Sinapis arvensis), wild oat (Avena fatua), windgrass (Apera spica-venti), winter barley (Hordeum vulgare), and winter wheat (Triticum aestivum) were planted and treated preemergence with test chemicals formulated in a non-phytotoxic solvent mixture which included a surfactant. At the same time, plants selected from these crop and weed species were treated with postemergence applications of some of the test chemicals formulated in the same manner. Plants ranged in height from 2 to 18 cm (1- to 4-leaf stage) for postemergence treatments.
(§3) Treated plants and controls were maintained in a controlled growth environment for 15 to 25 days after which time all species were compared to controls and visually evaluated. Plant response ratings, summarized in Table C, are based on a scale of 0 to 100 where 0 is no effect and 100 is complete control. A dash (-) response means no test result.

[5] = test system: annual bluegrass (Poa annua); assay: Test C pre-/postemergence plant response; details: Preemergence
Excerpt: as §2, §3

[6] = test system: blackgrass (Alopecurus myosuroides); assay: Test C pre-/postemergence plant response; details: Preemergence
Excerpt: as §2, §3

[7] = test system: canarygrass (Phalaris minor); assay: Test C pre-/postemergence plant response; details: Preemergence
Excerpt: as §2, §3

[8] = test system: green foxtail (Setaria viridis); assay: Test C pre-/postemergence plant response; details: Preemergence
Excerpt: as §2, §3

[9] = test system: pigweed (Amaranthus retroflexus); assay: Test C pre-/postemergence plant response; details: Preemergence
Excerpt: as §2, §3

[10] = test system: spring barley (Hordeum vulgare); assay: Test C pre-/postemergence plant response; details: Preemergence
Excerpt: as §2, §3

[11] = test system: spring wheat (Triticum aestivum); assay: Test C pre-/postemergence plant response; details: Preemergence
Excerpt: as §2, §3

[12] = test system: wild mustard (Sinapis arvensis); assay: Test C pre-/postemergence plant response; details: Preemergence
Excerpt: as §2, §3

[13] = test system: windgrass (Apera spica-venti); assay: Test C pre-/postemergence plant response; details: Preemergence
Excerpt: as §2, §3

[14] = test system: winter barley (Hordeum vulgare); assay: Test C pre-/postemergence plant response; details: Preemergence
Excerpt: as §2, §3

[15] = test system: winter wheat (Triticum aestivum); assay: Test C pre-/postemergence plant response; details: Preemergence
Excerpt: as §2, §3

[16] = Postemergence, 31 g ai/ha, 0 to 100 scale, 0 no effect, 100 complete control
[17] = Postemergence, 125 g ai/ha, 0 to 100 scale, 0 no effect, 100 complete control
[18] = Preemergence, 31 g ai/ha, 0 to 100 scale, 0 is no effect, 100 is complete control
[19] = Preemergence, 125 g ai/ha, 0 to 100 scale (0 no effect, 100 complete control)
[20] = 8 g ai/ha, scale 0 to 100 (0 no effect, 100 complete control)
[21] = 16 g ai/ha, scale 0 to 100 (0 no effect, 100 complete control)
[22] = 31 g ai/ha, scale 0 to 100 (0 no effect, 100 complete control)
[23] = 62 g ai/ha, scale 0 to 100, 0 no effect, 100 complete control

For Cc1cc(-c2ccc(Cl)cc2)nn1-c1c(OS(=O)(=O)c2ccccc2)cnn(C)c1=O [Compound 35], the “Plant response rating, Foxtail, Giant” value [1, 16] was 60, the “Plant response rating, Foxtail, Giant” value [1, 17] was 90 and the “Plant response rating, Foxtail, Giant” value [1, 18] was 100. The “Plant response rating, Foxtail, Giant” value [1, 19] was 100, the “Plant response rating, Velvetleaf” value [2, 16] was 0 and the “Plant response rating, Velvetleaf” value [2, 17] was 0. For the same molecule, the “Plant response rating, Velvetleaf” value [2, 18] was 0, the “Plant response rating, Velvetleaf” value [2, 19] was 0 and the “Plant response rating, Wheat” value [3, 16] was 0. The “Plant response rating, Wheat” value [3, 17] was 60, the “Plant response rating, Wheat” value [3, 18] was 20 and the “Plant response rating, Wheat” value [3, 19] was 80. For the same molecule, the “Plant response rating, Ryegrass, Italian” value [4, 20] was 0, the “Plant response rating, Ryegrass, Italian” value [4, 21] was 35 and the “Plant response rating, Ryegrass, Italian” value [4, 22] was 98. The “Plant response rating, Ryegrass, Italian” value [4, 23] was 100, the “Plant response rating, Bluegrass” value [5, 20] was 0 and the “Plant response rating, Bluegrass” value [5, 21] was 0. The “Plant response rating, Bluegrass” value [5, 22] was 0, the “Plant response rating, Bluegrass” value [5, 23] was 0 and the “Plant response rating, Blackgrass” value [6, 20] was 0. The “Plant response rating, Blackgrass” value [6, 21] was 30, the “Plant response rating, Blackgrass” value [6, 22] was 75 and the “Plant response rating, Blackgrass” value [6, 23] was 75. The “Plant response rating, Canarygrass” value [7, 20] was 0, the “Plant response rating, Canarygrass” value [7, 21] was 0 and the “Plant response rating, Canarygrass” value [7, 22] was 50. For the same molecule, the “Plant response rating, Canarygrass” value [7, 23] was 90, the “Plant response rating, Foxtail, Green” value [8, 20] was 15 and the “Plant response rating, Foxtail, Green” value [8, 22] was 40. The “Plant response rating, Foxtail, Green” value [8, 23] was 100, the “Plant response rating, Pigweed” value [9, 20] was 0 and the “Plant response rating, Pigweed” value [9, 22] was 0. For the same molecule, the “Plant response rating, Pigweed” value [9, 23] was 0, the “Plant response rating, Barley, Spring” value [10, 20] was 0 and the “Plant response rating, Barley, Spring” value [10, 21] was 0. For the same molecule, the “Plant response rating, Barley, Spring” value [10, 22] was 20, the “Plant response rating, Barley, Spring” value [10, 23] was 65 and the “Plant response rating, Wheat, Spring” value [11, 20] was 0. The “Plant response rating, Wheat, Spring” value [11, 21] was 20, the “Plant response rating, Wheat, Spring” value [11, 22] was 50 and the “Plant response rating, Wheat, Spring” value [11, 23] was 65. The “Plant response rating, Mustard, Wild” value [12, 22] was 0, the “Plant response rating, Mustard, Wild” value [12, 23] was 0 and the “Plant response rating, Windgrass” value [13, 20] was 0. The “Plant response rating, Windgrass” value [13, 22] was 15, the “Plant response rating, Windgrass” value [13, 23] was 80 and the “Plant response rating, Barley, Winter” value [14, 20] was 0. The “Plant response rating, Barley, Winter” value [14, 22] was 0, the “Plant response rating, Barley, Winter” value [14, 23] was 50 and the “Plant response rating, Wheat, Winter” value [15, 20] was 0. The “Plant response rating, Wheat, Winter” value [15, 21] was 10, the “Plant response rating, Wheat, Winter” value [15, 22] was 25 and the “Plant response rating, Wheat, Winter” value [15, 23] was 70.
With Cc1cc(-c2ccc(Cl)cc2)nn1-c1c(OC(=O)c2cccs2)cnn(C)c1=O [Compound 52] the “Plant response rating, Foxtail, Giant” value [1, 16] was 80, the “Plant response rating, Foxtail, Giant” value [1, 17] was 90 and the “Plant response rating, Foxtail, Giant” value [1, 18] was 100. The “Plant response rating, Foxtail, Giant” value [1, 19] was 100, the “Plant response rating, Velvetleaf” value [2, 16] was 0 and the “Plant response rating, Velvetleaf” value [2, 17] was 20. The “Plant response rating, Velvetleaf” value [2, 19] was 0, the “Plant response rating, Wheat” value [3, 16] was 30 and the “Plant response rating, Wheat” value [3, 17] was 60. For the same molecule, the “Plant response rating, Wheat” value [3, 18] was 10, the “Plant response rating, Wheat” value [3, 19] was 80 and the “Plant response rating, Ryegrass, Italian” value [4, 20] was 0. The “Plant response rating, Ryegrass, Italian” value [4, 21] was 65, the “Plant response rating, Ryegrass, Italian” value [4, 22] was 90 and the “Plant response rating, Ryegrass, Italian” value [4, 23] was 100. The “Plant response rating, Bluegrass” value [5, 20] was 0, the “Plant response rating, Bluegrass” value [5, 21] was 0 and the “Plant response rating, Bluegrass” value [5, 22] was 10. The “Plant response rating, Bluegrass” value [5, 23] was 10, the “Plant response rating, Blackgrass” value [6, 20] was 40 and the “Plant response rating, Blackgrass” value [6, 21] was 60. The “Plant response rating, Blackgrass” value [6, 22] was 95, the “Plant response rating, Blackgrass” value [6, 23] was 95 and the “Plant response rating, Canarygrass” value [7, 20] was 0. For the same molecule, the “Plant response rating, Canarygrass” value [7, 21] was 65, the “Plant response rating, Canarygrass” value [7, 22] was 90 and the “Plant response rating, Canarygrass” value [7, 23] was 95. The “Plant response rating, Foxtail, Green” value [8, 20] was 75, the “Plant response rating, Foxtail, Green” value [8, 21] was 100 and the “Plant response rating, Foxtail, Green” value [8, 22] was 100. For the same molecule, the “Plant response rating, Foxtail, Green” value [8, 23] was 100, the “Plant response rating, Pigweed” value [9, 20] was 0 and the “Plant response rating, Pigweed” value [9, 21] was 0. For the same molecule, the “Plant response rating, Pigweed” value [9, 22] was 0, the “Plant response rating, Pigweed” value [9, 23] was 0 and the “Plant response rating, Barley, Spring” value [10, 20] was 0. The “Plant response rating, Barley, Spring” value [10, 21] was 0, the “Plant response rating, Barley, Spring” value [10, 22] was 40 and the “Plant response rating, Barley, Spring” value [10, 23] was 60. The “Plant response rating, Wheat, Spring” value [11, 20] was 0, the “Plant response rating, Wheat, Spring” value [11, 21] was 0 and the “Plant response rating, Wheat, Spring” value [11, 22] was 65. For the same molecule, the “Plant response rating, Wheat, Spring” value [11, 23] was 90, the “Plant response rating, Mustard, Wild” value [12, 20] was 0 and the “Plant response rating, Mustard, Wild” value [12, 21] was 0. The “Plant response rating, Mustard, Wild” value [12, 22] was 0, the “Plant response rating, Mustard, Wild” value [12, 23] was 0 and the “Plant response rating, Windgrass” value [13, 20] was 0. The “Plant response rating, Windgrass” value [13, 21] was 0, the “Plant response rating, Windgrass” value [13, 22] was 70 and the “Plant response rating, Windgrass” value [13, 23] was 70. For the same molecule, the “Plant response rating, Barley, Winter” value [14, 20] was 0, the “Plant response rating, Barley, Winter” value [14, 21] was 0 and the “Plant response rating, Barley, Winter” value [14, 22] was 0. The “Plant response rating, Barley, Winter” value [14, 23] was 50, the “Plant response rating, Wheat, Winter” value [15, 20] was 0 and the “Plant response rating, Wheat, Winter” value [15, 21] was 0. For the same molecule, the “Plant response rating, Wheat, Winter” value [15, 22] was 40 and the “Plant response rating, Wheat, Winter” value [15, 23] was 65.

— patent publication US20100267561A1, “HERBICIDAL PYRIDAZINONE DERIVATIVES” (priority 2007, published 2010)
